Measurements from US20230257383A1, “COMPOUND SERVING AS BTK INHIBITOR, PREPARATION METHOD THEREFOR, AND USE THEREOF” (CHENGDU HYPERWAY PHARMACEUTICALS CO., LTD., priority 2020, published 2023).
pIC50: −log10 of the molar value.

Experiments:
[1] = test system: DOHH2 cell proliferation; experiment: In vitro cell proliferation inhibitory activity test (CTG), DOHH2; format: cell-based; details: Homo sapiens, DOHH-2
Procedure: (§1) Test Example 4: In Vitro Cell Proliferation Inhibitory Activity Test
(§2) Cells were cultured in 1640 medium, added with 10% inactivated FBS and 1% double antibiotics, and cultured at 37° C. and 5% CO2.
(§3) (1) Cells were routinely cultured until the cell density was 80%-90%, and the cells were harvested when their number reached the requirement.
(§4) (2) Cells were resuspended with corresponding culture medium, counted, and prepared into cell suspension at appropriate density.
(§5) (3) The cell suspension was added to a 96-well plate, 100 μL per well.
(§6) (4) Cells were cultured overnight in a 37° C., 5% CO2 incubator.
(§7) (1) The compounds to be tested were diluted with DMSO to make a stock solution with a final concentration of 20 mM for later use.
(§8) (2) The stock solution was diluted 10 times from 20 mM to 2 mM with DMSO, and then diluted 3 times from 2 mM to 9 concentrations.
(§9) (3) The blank control wells were cells plus 0.5% DMSO, as high-reading control wells.
(§10) (4) Wells with no cells and only medium were used as low-reading control wells.
(§11) 4: Cell treatment with compound
(§12) (1) 24 h after the cells were plated, the compounds acted alone, and 99 μL of growth medium was added to each well, followed by 1 μL of the compound prepared in step 3. The plate was shaken gently to mix uniformly, and then placed in a 37° C., 5% CO2 incubator.
(§13) (2) The cell plate was placed in an incubator for 72 h.
(§14) 5: Detection by CTG method
(§15) (1) The cell plate to be tested was placed at room temperature for 30 min, and 100 μL of medium was discarded from each well.
(§16) (2) 100 μL of CTG reagent (CelltiterGlo kit) was added to each well, placed on a fast shaker for 2 min, and stood at room temperature in the dark for 30 min.
(§17) (3) The chemiluminescent signal value was read with the Envision instrument.
(§18) IC50 was calculated by using GraphPad Prism 8 software. The IC50 (half inhibitory concentration) of the compound was derived using the following nonlinear fitting formula, and the results are shown in the following table:
(§19) Y=Bottom+(Top−Bottom)/(1+10^((Log IC50−X)×HillSlope))
(§20) X: log value of compound concentration, Y: inhibition rate (% inhibition)
(§21) Inhibition rate (% inhibition)=(reading of high-reading control well-reading of compound well)/(reading of high-reading control well-reading of low-reading control well)×100

[2] = test system: DOHH-2-luc tumor cells in the mouse brain; experiment: DOHH-2-Luc intracerebral tumor drug efficacy model test; format: in vivo; details: for inhibitory effect against the tumor compared with Tirabrutinib: DOHH2 tumor model in the mouse brain, same dose of 30 mg/kg (BID), FIG. 3; for fluorescence image of brain tumor (red area = tumor size): DOHH-2-Luc intracerebral model, same dose, FIG. 4; for side effects: mouse, 30 mg/kg (BID), after 21 days of administration
Procedure: Test Example 8: DOHH-2-Luc Intracerebral Tumor Drug Efficacy Model Test
DOHH-2-luc tumor cells were cultured in vitro with RPMI 1640 medium containing 10% fetal bovine serum and 500 ng/mL puromycin in a 37° C., 5% CO2 incubator. […] Tumor cells in logarithmic growth phase were used for inoculation of tumors in vivo.
2. Inoculation of Tumor Cell and Grouping
After the animal was anesthetized by intramuscular injection of Zoletil, it was fixed on the operating table in a prone position. The skin on the top of the head was disinfected with iodine and 75% alcohol respectively, and the skin was cut about 0.5 cm along the midline of the head to expose the coronal and sagittal lines. Being located about 0.5-1.0 mm above the coronal line and about 2 mm to the right of the sagittal line by using a brain locator, a hole was drilled with a 1 mL syringe needle. The micro-injector was inserted vertically to a depth of 3 mm at the location, slowly (about 1 min) injected with 3×10^5 DOHH-2-luc tumor cells/2 μL suspension and kept for 1 min. After pulling out the needle, the needle hole was quickly sealed with bone wax, and the wound was sutured with a stapler. About the 7th day after tumor inoculation, the animals were randomly divided into 5 groups according to the body weight of the animals and the optical signal intensity of the tumor site, with 5 animals in each group.
The mice were imaged 1-2 times a week according to their state using the small animal in vivo imaging system IVIS Lumina III (Perkin Elmer). The bioluminescence imaging (BLI, unit: photons/s) signal intensity at the tumor cell inoculation site of mouse was monitored as the main indicator for evaluating tumor growth and drug efficacy. The specific operation is as follows:
The mice were intraperitoneally injected with D-luciferin (15 mg/mL, 5 μL/g according to the body weight of the experimental animal), and then inhaled anesthetized with 1%-2% isoflurane. 10 min after the injection of D-luciferin, the animals were imaged with IVIS Lumina III. The data were analyzed and processed using Living Image software (Perkin Elmer), and the optical signal intensity in ROI (regions of interest) of each animal was calculated.

[3] = molecular target: HER2 kinase (Homo sapiens, UniProt P04626); experiment: HER2 kinase activity test (HTRF); format: biochemical
Sequence of HER2 kinase (P04626 23-1255): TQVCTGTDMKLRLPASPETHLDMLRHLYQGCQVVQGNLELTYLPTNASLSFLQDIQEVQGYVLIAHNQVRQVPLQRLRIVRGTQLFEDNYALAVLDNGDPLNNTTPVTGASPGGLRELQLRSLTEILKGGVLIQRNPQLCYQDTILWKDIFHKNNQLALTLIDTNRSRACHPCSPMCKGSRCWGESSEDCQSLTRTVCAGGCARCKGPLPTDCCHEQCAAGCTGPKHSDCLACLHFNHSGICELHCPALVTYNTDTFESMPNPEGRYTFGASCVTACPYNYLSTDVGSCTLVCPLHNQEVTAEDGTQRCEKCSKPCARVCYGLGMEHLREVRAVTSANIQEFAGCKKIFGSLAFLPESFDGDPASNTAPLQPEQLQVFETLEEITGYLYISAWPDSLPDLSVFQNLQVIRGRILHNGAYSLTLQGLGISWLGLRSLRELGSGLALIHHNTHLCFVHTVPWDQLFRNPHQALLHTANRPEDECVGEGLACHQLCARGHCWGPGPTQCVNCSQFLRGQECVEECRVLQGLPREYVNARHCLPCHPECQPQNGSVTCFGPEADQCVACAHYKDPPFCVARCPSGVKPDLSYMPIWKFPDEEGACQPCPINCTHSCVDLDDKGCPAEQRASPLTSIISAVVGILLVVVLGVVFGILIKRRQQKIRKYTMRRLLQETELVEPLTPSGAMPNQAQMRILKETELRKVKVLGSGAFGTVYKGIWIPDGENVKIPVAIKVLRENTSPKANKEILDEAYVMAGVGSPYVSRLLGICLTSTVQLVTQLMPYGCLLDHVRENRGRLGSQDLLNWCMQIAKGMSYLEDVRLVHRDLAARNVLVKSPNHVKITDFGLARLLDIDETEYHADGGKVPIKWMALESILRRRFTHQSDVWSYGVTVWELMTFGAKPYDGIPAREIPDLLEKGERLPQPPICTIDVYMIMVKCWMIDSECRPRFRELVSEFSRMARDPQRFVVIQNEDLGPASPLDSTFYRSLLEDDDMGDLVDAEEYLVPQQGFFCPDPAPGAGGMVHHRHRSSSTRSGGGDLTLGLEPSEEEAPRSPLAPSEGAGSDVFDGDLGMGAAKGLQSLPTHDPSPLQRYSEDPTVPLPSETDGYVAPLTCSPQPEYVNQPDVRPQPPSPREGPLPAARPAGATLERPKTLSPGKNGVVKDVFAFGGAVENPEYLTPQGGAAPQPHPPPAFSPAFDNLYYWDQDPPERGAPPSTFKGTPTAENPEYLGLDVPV
Procedure: Test Example 5: HER2 Kinase Activity Test
1. Her2 Kinase test steps
2) 100 nl of the diluted compound working solution was transferred into each well of a reaction plate (784075, Greiner) by an Echo 550 liquid hander. The reaction plate was sealed with a sealing film and centrifuged at 1000 g for 1 min.
3) 1 ng/μL Her2 kinase solution was prepared with 1× kinase reaction buffer.
4) 5 μL of the kinase solution prepared above was added to each well of the reaction plate. The plate was sealed with a sealing film, centrifuged at 1000 g for 1 min, and placed at room temperature for 10 min.
5) A mixture of 2× kinase substrate and ATP was prepared by using 1× kinase reaction buffer, and the 2× Her2 kinase substrate was 2 μM TK-substrate-biotin and 4 μM ATP
6) 5 μL of the mixture of 2× TK-substrate-biotin and ATP was added to the reaction plate, centrifuged at 1000 g for 30 seconds to start the reaction.
7) Her2 kinase test was performed at room temperature for 50 min of reaction.
9) 10 μL of the mixture of Sa-XL 665 and TK-antibody-Cryptate was added to each well, centrifuged at 1000 g for 30 seconds, and reacted at room temperature for 1 h.
10) The fluorescence signals at 615 nm (Cryptate) and 665 nm (XL665) were read by Envision 2104.
1) The percentage inhibition was calculated as follows: […]
Ratiopositive control: average value of Ratio 665/615 nm of all positive control wells in the plate.
Rationegative control: average value of Ratio 665/615 nm of all negative control wells in the plate.
2) Calculation of IC50 and fitting of dose-effect curve of compound:
The IC50 of the compound was derived using the following nonlinear fitting formula with GraphPad 6.0.
Y=Bottom+(Top−Bottom)/(1+10^((Log IC50−X)×HillSlope)).
X: log value of compound concentration; Y: percentage inhibition of compound

[4] = test system: NCI-N87 cell proliferation; experiment: In vitro cell proliferation inhibitory activity test (CTG), NCI-N87; format: cell-based; details: Homo sapiens
Procedure: as §1, §2, §3, §4, §5, §6, §7, §8, §9, §10, §11, §12, §13, §14, §15, §16, §17, §18, §19, §20, §21

| Compound | pIC50 [1] | inhibitory effect against the tumor compared with Tirabrutinib [2] | fluorescence image of brain tumor (red area = tumor size) [2] | side effects [2] | pIC50 [3] | pIC50 [4] |
| --- | --- | --- | --- | --- | --- | --- |
| Nc1nccn2c(C3CCC(CO)OC3)nc(-c3ccc(C(F)(F)c4ccccc4)cc3)c12 (single isomer, unassigned) [Example 111-P1] | 6.94 | significantly better inhibitory effect against the tumor than Tirabrutinib | very good inhibitory effect against the tumor, with almost no red area | no side effects had been found | – | – |
| Nc1nccn2c(C34CCC(CO)(CC3)OC4)nc(-c3ccc(C(F)(F)c4ccccc4Cl)cc3)c12 [Example 155] | – | – | – | – | 8.03 | – |
| Nc1nccn2c(C34CCC(CO)(CC3)OC4)nc(-c3ccc(C(F)(F)c4cccc(Cl)c4F)cc3)c12 [Example 152] | – | – | – | – | 8.38 | 7.36 |
| Nc1nccn2c(C34CCC(CO)(CC3)OC4)nc(-c3ccc(C(F)(F)c4ccccc4)cc3)c12 [Example 125] | 6.94 | significantly better inhibitory effect against the tumor than Tirabrutinib | very good inhibitory effect against the tumor, with almost no red area | no side effects had been found | – | – |
| Cc1cc(Nc2ncnc3ccc(NC4=NC(C)(C)CO4)cc23)ccc1Oc1ccn2ncnc2c1 [Tucatinib, reference compound] | – | – | – | – | 8.52 | 7.59 |
| Nc1nccn2c(C34CCC(CO)(CC3)OC4)nc(-c3ccc(C(F)(F)c4ccccc4F)cc3)c12 [Example 145] | – | – | – | – | 8.77 | 7.43 |
